Assay results: patent US20230113609A1, “SSTR5 ANTAGONISTS” (Kallyope, Inc., priority 2019, published 2023)

Target: T1, human SSTR5 (Homo sapiens, UniProt P35346)
T1 construct: expressed in transfected cells
Experiment: Inositol phosphate accumulation assay (IP1 HTRF, antagonist mode)
Format: cell-based
Conditions: CHO-K1 cells co-expressing human SSTR5 with Gqi5, SST28 agonist at concentration generating 90% of full activation
Description: CHO-K1 cells stably co-expressing human SSTR5 with Gqi5 were developed using Jump-In technology from Thermo-Fisher. Gqi5 is the mouse G alpha q protein, that was modified to interact with Gi-coupled GPCRs as described previously (Coward, P.; Chan, S. D.; Wada, H. G.; Humphries, G. M.; Conklin, B. R. Chimeric G proteins Allow a High-Throughput Signaling Assay of Gi-Coupled Receptors. Anal Biochem. 1999, 270(2),242-248).
Co-expression of Gqi5 with SSTR5 allowed monitoring of SSTR5 activity by following IP1 accumulation. The assay was performed in a 384-well plate format using the IP1 assay kit from Cis-Bio in an antagonist mode, i.e., pre-incubation with antagonist following by receptor activation by agonist at a concentration generating 90% of full activation. Frozen cells expressing human SSTR5 were thawed, washed, and then plated in DMEM supplemented with 10% FBS and non-essential amino acids. 40 μL of 2.5×10^5 cells/mL were plated on a Poly D-Lysine coated 384-well white plate. The cells were then incubated for 16 hr. at 37° C/5% CO2. After 16 hour the medium was removed, and 10 μL of stimulation buffer was added to the cells. Test compounds were dissolved in DMSO at concentrations 2000-fold that of the final assay concentrations. 7.5 nLcompound solutions were transferred to the cell plates using a Labcyte Echo® acoustic liquid handler. The plates were then incubated for 15 minutes at 37° C/5%CO2. After the first incubation, 5 μL of 30 nM SST28 were added to the cells, and the cells were incubated for 90 minutes at 37° C/5%CO2. 5 μL of detection buffer (prepared as described in the IP-1 kit) was added to each well, and the plates were incubated at RT for 1 hour.
TR-FRET was measured using a ClarioSTAR plate reader, calculating the ratio between emissions at 665 nm and 620 nm (HTRF ratio). The HTRF ratio for positive (Max) and negative (Min) controls were used to normalize HTRF data and generate values for % inhibition. IC50 and maximal inhibition values were determined using a standard 4-parameter fit.

T1 sequence (P35346 whole entry): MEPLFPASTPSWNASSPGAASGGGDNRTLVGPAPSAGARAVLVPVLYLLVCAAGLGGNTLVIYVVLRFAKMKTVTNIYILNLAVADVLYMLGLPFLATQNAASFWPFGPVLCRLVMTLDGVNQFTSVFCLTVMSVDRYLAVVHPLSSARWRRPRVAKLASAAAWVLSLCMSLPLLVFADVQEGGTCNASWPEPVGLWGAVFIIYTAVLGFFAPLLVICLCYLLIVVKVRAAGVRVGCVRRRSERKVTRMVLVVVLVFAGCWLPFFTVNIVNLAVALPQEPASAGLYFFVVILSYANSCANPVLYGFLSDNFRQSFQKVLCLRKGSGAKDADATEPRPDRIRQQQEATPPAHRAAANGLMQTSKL

SMILES	IC50
CCOc1cc(C(=O)OC)c(C2CC2)cc1CN1CCC2(CC1)CC(=O)N(c1ccc(C(=O)NCCS(N)(=O)=O)cc1)C2 [Example 50, methyl 2-cyclopropyl-5-ethoxy-4-((3-oxo-2-(4-((2-sulfamoylethyl)carbamoyl)phenyl)-2,8-diazaspiro[4.5]decan-8-yl)methyl)benzoate]	100 to 1000 nM
CCOc1cc(C(=O)OC)c(C2CC2)cc1CN1CCC2(CC1)CC(=O)N(c1ccc(C(=O)NCCCCS(N)(=O)=O)cc1)C2 [Example 51, methyl 2-cyclopropyl-5-ethoxy-4-((3-oxo-2-(4-((4-sulfamoylbutyl)carbamoyl)phenyl)-2,8-diazaspiro[4.5]decan-8-yl)methyl)benzoate]	100 to 1000 nM
CCOc1cc(C(=O)OC)c(C2CC2)cc1CN1CCC2(CC1)CC(=O)N(c1ccc(C(=O)N3CCC(S(N)(=O)=O)CC3)cc1)C2 [Example 52, methyl 2-cyclopropyl-5-ethoxy-4-((3-oxo-2-(4-(4-sulfamoylpiperidine-1-carbonyl)phenyl)-2,8-diazaspiro[4.5]decan-8-yl)methyl)benzoate]	100 to 1000 nM
CCOc1cc(C(=O)OC)c(C2CC2)cc1CN1CCC2(CC1)CC(=O)N(c1ccc(C(=O)N3CCC(CS(N)(=O)=O)CC3)cc1)C2 [Example 53, methyl 2-cyclopropyl-5-ethoxy-4-((3-oxo-2-(4-(4-(sulfamoylmethyl)piperidine-1-carbonyl)phenyl)-2,8-diazaspiro[4.5]decan-8-yl)methyl)benzoate]	100 to 1000 nM
CCOc1cc(C(=O)OC)c(C2CC2)cc1CN1CCC2(CC1)CN(c1ccc(C(=O)NC[C@H](O)[C@@H](O)[C@H](O)[C@H](O)CO)cc1)C(=O)O2 [Example 54, methyl 2-cyclopropyl-5-ethoxy-4-((2-oxo-3-(4-(((2S,3R,4R,5R)-2,3,4,5,6-pentahydroxyhexyl)carbamoyl)phenyl)-1-oxa-3,8-diazaspiro[4.5]decan-8-yl)methyl)benzoate]	≤ 100 nM
CCOc1cc(C(=O)OC)c(C2CC2)cc1CN1CCC2(CC1)CC(=O)N(c1ccc(C(=O)NCCCNC(=N)N)cc1)C2 [Example 55, methyl 2-cyclopropyl-5-ethoxy-4-((2-(4-((3-guanidinopropyl)carbamoyl)phenyl)-3-oxo-2,8-diazaspiro [4.5]decan-8-yl)methyl)benzoate]	100 to 1000 nM
CCOc1cc(C(=O)OC)c(C2CC2)cc1CN1CCC2(CC1)CN(c1ccc(C(=O)NCCOCCO)cc1)C(=O)O2 [Example 56, methyl 2-cyclopropyl-5-ethoxy-4-((3-(4-((2-(2-hydroxyethoxy)ethyl)carbamoyl)phenyl)-2-oxo-1-oxa-3,8-diazaspiro[4.5]decan-8-yl)methyl)benzoate]	≤ 100 nM
CCOc1cc(C(=O)OC)c(C2CC2)cc1CN1CCC2(CC1)CN(c1ccc(C(=O)NCCCNC(N)=O)cc1)C(=O)O2 [Example 57, methyl 2-cyclopropyl-5-ethoxy-4-((2-oxo-3-(4-((3-ureidopropyl)carbamoyl)phenyl)-1-oxa-3,8-diazaspiro [4.5]decan-8-yl)methyl)benzoate]	≤ 100 nM
CCOc1cc(C(=O)OC)c(C2CC2)cc1CN1CCC2(CC1)CN(c1ccc(C(=O)NCCCS(=O)(=O)O)cc1)C(=O)O2 [Example 58, 3-(4-(8-(5-cyclopropyl-2-ethoxy-4-(methoxycarbonyl)benzyl)-2-oxo-1-oxa-3,8-diazaspiro[4.5]decan-3-yl)benzamido)propane-1-sulfonic acid]	≤ 100 nM
CCOc1cc(C(=O)OC)c(C2CC2)cc1CN1CCC2(CC1)CN(c1ccc(C(=O)NCCCS(N)(=O)=O)cc1)C(=O)O2 [Example 59, methyl 2-cyclopropyl-5-ethoxy-4-((2-oxo-3-(4-((3-sulfamoylpropyl)carbamoyl)phenyl)-1-oxa-3,8-diazaspiro[4.5]decan-8-yl)methyl)benzoate]	≤ 100 nM
CCOc1cc(-c2ccc(F)cc2)c(C2CC2)cc1CN1CCC2(CC1)CN(c1ccc(C(=O)NC[C@H](O)[C@@H](O)[C@H](O)[C@H](O)CO)cc1)C(=O)O2 [Example 60, 4-(8-((2-cyclopropyl-5-ethoxy-4′-fluoro-[1,1′-biphenyl]-4-yl)methyl)-2-oxo-1-oxa-3,8-diazaspiro[4.5]decan-3-yl)-N-((2S,3R,4R,5R)-2,3,4,5,6-pentahydroxyhexyl)benzamide]	≤ 100 nM
CCOc1cc(-c2ccc(F)cc2)c(C2CC2)cc1CN1CCC2(CC1)CN(c1ccc(C(=O)NCCOCCO)cc1)C(=O)O2 [Example 61, 4-(8-((2-cyclopropyl-5-ethoxy-4′-fluoro-[1,1′-biphenyl]-4-yl)methyl)-2-oxo-1-oxa-3,8-diazaspiro [4.5]decan-3-yl)-N-(2-(2-hydroxyethoxy)ethyl)benzamide]	≤ 100 nM
CCOc1cc(-c2ccc(F)cc2)c(C2CC2)cc1CN1CCC2(CC1)CN(c1ccc(C(=O)NCCCNC(N)=O)cc1)C(=O)O2 [Example 62, 4-(8-((2-cyclopropyl-5-ethoxy-4′-fluoro-[1,1′-biphenyl]-4-yl)methyl)-2-oxo-1-oxa-3,8-diazaspiro[4.5]decan-3-yl)-N-(3-ureidopropyl)benzamide]	≤ 100 nM
CCOc1cc(-c2ccc(F)cc2)c(C2CC2)cc1CN1CCC2(CC1)CN(c1ccc(C(=O)NCCCS(=O)(=O)O)cc1)C(=O)O2 [Example 63, 3-(4-(8-((2-cyclopropyl-5-ethoxy-4′-fluoro-[1,1′-biphenyl]-4-yl)methyl)-2-oxo-1-oxa-3,8-diazaspiro[4.5]decan-3-yl)benzamido)propane-1-sulfonic acid]	≤ 100 nM
CCOc1cc(-c2ccc(F)cc2)c(C2CC2)cc1CN1CCC2(CC1)CN(c1ccc(C(=O)NCCCS(N)(=O)=O)cc1)C(=O)O2 [Example 64, 4-(8-((2-cyclopropyl-5-ethoxy-4′-fluoro-[1,1′-biphenyl]-4-yl)methyl)-2-oxo-1-oxa-3,8-diazaspiro[4.5]decan-3-yl)-N-(3-sulfamoylpropyl)benzamide]	≤ 100 nM
CCOc1cc(-c2ccc(F)cc2)c(C2CC2)cc1CN1CCC2(CC1)CN(c1ccc(C(=O)NCCCS(=O)(=O)O)cc1)C(=O)N2 [Example 66, 3-(4-(8-((2-cyclopropyl-5-ethoxy-4′-fluoro-[1,1′-biphenyl]-4-yl)methyl)-2-oxo-1,3,8-triazaspiro[4.5]decan-3-yl)benzamido)propane-1-sulfonic acid]	≤ 100 nM
CCOc1cc(-c2nc(C)no2)c(C2CC2)cc1CN1CCC2(CC1)CN(c1ccc(C(=O)NCCOCCO)cc1)C(=O)N2 [Example 67, 4-(8-(5-cyclopropyl-2-ethoxy-4-(3-methyl-1,2,4-oxadiazol-5-yl)benzyl)-2-oxo-1,3,8-triazaspiro[4.5]decan-3-yl)-N-(2-(2-hydroxyethoxy)ethyl)benzamide]	100 to 1000 nM
CCOc1cc(-c2nc(C)no2)c(C2CC2)cc1CN1CCC2(CC1)CN(c1ccc(C(=O)NCCCS(=O)(=O)O)cc1)C(=O)N2 [Example 68, 3-(4-(8-(5-cyclopropyl-2-ethoxy-4-(3-methyl-1,2,4-oxadiazol-5-yl)benzyl)-2-oxo-1,3,8-triazaspiro[4.5]decan-3-yl)benzamido)propane-1-sulfonic acid]	100 to 1000 nM
CCOc1cc(-c2ccc(F)cc2)c(C2CC2)cc1CN1CCC2(CC1)CN(c1ccc(C(=O)NCCO)cc1)C(=O)N2 [Example 69, 4-(8-((2-cyclopropyl-5-ethoxy-4′-fluoro-[1,1′-biphenyl]-4-yl)methyl)-2-oxo-1,3,8-triazaspiro[4.5]decan-3-yl)-N-(2-hydroxyethyl)benzamide]	≤ 100 nM
CCOc1cc(-c2ccc(F)cc2)c(C2CC2)cc1CN1CCC2(CC1)CN(c1ccc(C(=O)NCCOCCOCCO)cc1)C(=O)N2 [Example 70, 4-(8-((2-cyclopropyl-5-ethoxy-4′-fluoro-[1,1′-biphenyl]-4-yl)methyl)-2-oxo-1,3,8-triazaspiro[4.5]decan-3-yl)-N-(2-(2-(2-hydroxyethoxy)ethoxy)ethyl)benzamide]	≤ 100 nM
CCOc1cc(-c2ccc(F)cc2)c(C2CC2)cc1CN1CCC2(CC1)CN(c1ccc(C(=O)NCCS(=O)(=O)O)cc1)C(=O)N2 [Example 71, 2-(4-(8-((2-cyclopropyl-5-ethoxy-4′-fluoro-[1,1′-biphenyl]-4-yl)methyl)-2-oxo-1,3,8-triazaspiro[4.5]decan-3-yl)benzamido)ethane-1-sulfonic acid]	≤ 100 nM
CCOc1cc(-c2ccc(F)cc2F)c(C2CC2)cc1CN1CCC2(CC1)CN(c1ccc(C(=O)NCCOCCO)cc1)C(=O)N2 [Example 72, 4-(8-((2-cyclopropyl-5-ethoxy-2′,4′-difluoro-[1,1′-biphenyl]-4-yl)methyl)-2-oxo-1,3,8-triazaspiro[4.5]decan-3-yl)-N-(2-(2-hydroxyethoxy)ethyl)benzamide]	≤ 100 nM
